Laboratory results reported in publication PMC3524758, “Development and evaluation of a novel radioiodinated vesamicol analog as a sigma receptor imaging agent” (EJNMMI Research, 2012).
Like-named read-outs stand apart in the source and are kept apart here.

Tests used:
[1] = target: T1, sigma-2 receptor (Rattus norvegicus, UniProt Q5U3Y7); test: Sigma-2 receptor competitive binding assay ([3H]DTG, rat liver membranes, (+)-pentazocine mask)
T1 construct: from tissue; host or cells: rat liver (male Sprague-Dawley rats)
T1 sequence (Q5U3Y7 1-176): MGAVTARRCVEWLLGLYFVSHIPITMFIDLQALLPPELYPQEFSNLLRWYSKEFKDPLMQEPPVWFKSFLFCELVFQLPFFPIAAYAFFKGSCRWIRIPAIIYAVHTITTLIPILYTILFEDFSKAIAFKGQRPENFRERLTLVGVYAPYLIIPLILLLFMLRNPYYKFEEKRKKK
Protocol: (§1) Animal experimental protocols were approved by the Committee on Animal Experimentation of Kanazawa University. Experiments with animals were conducted in accordance with the Guidelines for the Care and Use of Laboratory Animals of Kanazawa University. The animals were housed with free access to food and water at 23°C with a 12-h alternating light/dark schedule. The rat brain and liver membranes for binding experiments were prepared from rat brains without cerebellum and rat liver in male Sprague–Dawley rats (200 g, Japan SLC, Inc., Hamamatsu, Japan), respectively, using a method described previously.
A sigma-2 receptor binding assay was performed using the following method. […] The incubated samples were treated in the same manner as described for the sigma-1 receptor binding assays.

[2] = target: T2, sigma-1 receptor (Rattus norvegicus, UniProt Q9R0C9); test: Sigma-1 receptor competitive binding assay ((+)-[3H]pentazocine, rat cerebral membranes)
T2 construct: from tissue; host or cells: rat brain without cerebellum (male Sprague-Dawley rats)
T2 sequence (Q9R0C9 whole entry): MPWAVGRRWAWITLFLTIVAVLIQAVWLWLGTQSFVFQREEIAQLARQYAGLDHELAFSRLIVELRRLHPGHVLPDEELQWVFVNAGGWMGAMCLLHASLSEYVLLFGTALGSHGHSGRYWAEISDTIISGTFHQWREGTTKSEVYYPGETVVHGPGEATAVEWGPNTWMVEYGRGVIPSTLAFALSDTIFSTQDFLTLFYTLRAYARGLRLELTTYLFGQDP
Protocol: as §1
A sigma-1 receptor binding assay was performed using the following method. […] The incubated samples were quickly diluted with 5 mL of ice-cold Tris–HCl (pH 7.8) buffer followed by rapid filtration through Whatman Grade GF/B glass fiber filters (GE Healthcare UK Ltd., Amersham, UK) presoaked in 0.5% polyethylenimine using a cell harvester (Brandel, Gaithersburg, MD, USA). Filters were washed three times with 5 mL of ice-cold buffer. […] Radioactivity retained on the filters was measured with a liquid scintillation counter (LSC-5100; Aloka, Tokyo, Japan).

[3] = target: T2, sigma-1 receptor; design: method as in PMID 15670917; details: cited from earlier work
[4] = tested on: sigma receptors; test: Blocking studies with excess sigma ligand in DU-145 tumor-bearing mice; assay type: in vivo; details: 10 μmol/kg i.v. co-injection, 1-h post-injection
Protocol: At 1-h post-injection, the mice were killed, and biodistribution experiments were conducted as described above.

[5] = tested on: DU-145 prostate cancer cell lines; test: Cellular uptake and washout experiments in vitro; assay type: cell-based; details: DU-145 cells
Protocol: Radiotracer uptake studies were performed in monolayer cultures of DU-145 prostate cancer cell lines, which were obtained from ATCC (Manassas, VA, USA). Cells were grown in cell culture dishes in RPMI 1640 medium with phenol red, 10% heat-inactivated fetal bovine serum (FBS), 100-μg/mL glutamine, 100-units/mL penicillin, and 100-μg/mL streptomycin at 37°C in a humidified atmosphere of 95% air and 5% carbon dioxide. Cells were plated on 6-well tissue culture plates (4 × 10^5 cells/well) for 24 h before the study and incubated at 37°C in the culture medium without FBS containing (+)-^125I]IV-OH or (+)-^125I]pIV (3.7 kBq/well), which was prepared by a method of a previous study for different time intervals (15, 30, 60, and 120 min). For the washout experiment, tumor cells exposed to a medium containing (+)-^125I]IV-OH or (+)-^125I]pIV for 60 min were washed with phosphate buffered saline (PBS) and incubated in fresh (nonradioactive) medium without FBS at 37°C for 15, 30, and 60 min. […] After incubation, cells were washed twice with ice-cold PBS and resolved by adding 0.5 mL of 1-M NaOH. The solutions were then collected and the radioactivity was determined with an auto well gamma counter (ARC-380; Aloka) and corrected for background radiation. The radioactivity of each sample was normalized for the protein level, which was determined using a Protein Assay Bicinchoninate Kit (Nacalai Tesque).

[6] = design: method as in PMID 19659515; details: cited from earlier work
[7] = rat liver membranes, 5-nM [3H]DTG, 1-μM (+)-pentazocine mask, Ki from IC50, means (SEM) of three or four experiments
[8] = rat cerebral membranes, 5-nM (+)-[3H]pentazocine, Ki from IC50, means (SEM) of three or four experiments

## (+)-Vesamicol [reference compound]
[1]; [7]
  Ki: 159 nM

## Oc1ccc(C2CCN(C3CCCCC3O)CC2)cc1 (single isomer, unassigned; (+)) [(+)-Ves-OH]
[2]; [8]
  Ki: 179 nM
[1]; [7]
  Ki: 97.2 nM

## O[C@@H]1CCCCC1N1CCC(c2ccc(I)cc2)CC1 (single isomer, unassigned; (+)) [(+)-pIV, (+)-2-[4-(4-iodophenyl)piperidino]cyclohexanol]
[3]
  Ki: 1.3 nM
[4]
  effect of co-injected ligand on brain to blood uptake ratio of (+)-[^125I]IV-OH: significant decrease
  effect of co-injected ligand on pancreas to blood uptake ratio of (+)-[^125I]IV-OH: significant decrease
  effect of co-injected ligand on tumor to blood uptake ratio of (+)-[^125I]IV-OH: significant decrease

## O[C@H]1CCCC[C@@H]1N1CCC(c2ccc([125I])cc2)CC1 [(+)-[^125I]pIV, reference compound]
[5]
  time at which uptake was saturated: 30 min
[5]; haloperidol 10 μM in culture medium
  accumulation in the presence of haloperidol: remarkably lessened
[5]; within 60 min after medium replacement, specific uptake
  intracellular radioactivity released into the supernatant: 44%
[6]
  log P: 2.08

## Oc1ccc(C2CCN(C3CCCC[C@H]3O)CC2)cc1I (single isomer, unassigned; (+)) [(+)-IV-OH, (+)-4-[1-(2-hydroxycyclohexyl)piperidine-4-yl]-2-iodophenol]
[2]
  Ki: 22.8 nM
[2]; in vitro binding assay
  selectivity for sigma-1 subtype over sigma-2: approximately 6.4 fold
[1]
  Ki: 147 nM

## Oc1ccc(C2CCN(C3CCCCC3O)CC2)cc1I (single isomer, unassigned; (-)) [(−)-IV-OH, (−)-enantiomer of 4-[1-(2-hydroxycyclohexyl)piperidine-4-yl]-2-iodophenol]
[2]; [8]
  Ki: 45.5 nM
[1]; [7]
  Ki: 166 nM

## COc1ccc(CCN2CCN(CCCc3ccccc3)CC2)cc1OC [SA4503]
[4]
  effect of co-injected ligand on brain to blood uptake ratio of (+)-[^125I]IV-OH: significant decrease
  effect of co-injected ligand on liver uptake of (+)-[^125I]IV-OH: did not inhibit
  effect of co-injected ligand on pancreas to blood uptake ratio of (+)-[^125I]IV-OH: significant decrease
  effect of co-injected ligand on tumor to blood uptake ratio of (+)-[^125I]IV-OH: significant decrease
